Patent US5486516A, “Furopyrimidine derivatives” (DowElanco, priority 1993, dated 1996)

What was measured:
[1] = test system: melon aphids (Aphis gossvpii Glover); test: Mite/insect screen, melon aphids; format: in vivo; conditions: sprayed leaves; for mortality at 200 ppm / mortality at 400 ppm: Aphis, read-out: MA results (percent mortality)
Procedure, shortened: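 Aphids established on squash cotyledons were sprayed to runoff with compound in acetone/alcohol with sulfonate/nonionic emulsifiers, diluted in water to test concentrations. Leaves dried 1 h. Percent mortality scored after standard exposure periods.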

[2] = test system: southern armyworm (Spodopetra eridania Cramer); test: Mite/insect screen, Southern armyworm; format: in vivo; conditions: sprayed leaves; for mortality at 200 ppm / mortality at 400 ppm: Spodoptera eridania, read-out: SAW results (percent mortality)
Procedure, shortened: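 Compounds in acetone/alcohol with Toximul emulsifiers, diluted in water, sprayed to runoff on squash leaves at 10 psi and dried 1 h. Excised treated leaves fed to southern armyworm larvae in Petri dishes; percent mortality scored after standard exposure.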

[3] = test system: Pyricularia oryzae (rice blast); test: whole plant or invertebrate; format: in vivo; conditions: foliar, read-out: RICE BLAST control rating
[4] = test system: Pseudoperonospora cubensis (downy mildew); test: Plant pathology screen (Test 1), downy mildew on squash; conditions: foliar, read-out: DOWN MDEW control rating
[5] = test system: Southern corn rootworm (Diabrotica undecimpuctata howardi Barber); test: Mite/insect screen, corn rootworm; format: in vivo; conditions: soil; for mortality at 12 ppm / mortality at 24 ppm: Diabrotica, read-out: CRW results (percent mortality)
Procedure, shortened: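 Compound in acetone/alcohol with emulsifiers, diluted with water; 1 mL applied to 15 g dry sandy soil holding a presoaked corn seed. After 6–12 h drying, five 2-3 instar larvae added, held at 23° C; percent mortality and phytotoxicity scored after standard exposure periods.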

[6] = test system: Erysiphe graminis tritici (powdery mildew); test: Plant pathology screen (Test 1), powdery mildew on wheat; conditions: Blumeria graminis, in Triticum aestivum, foliar, read-out: POWD MDEW control rating
[7] = test system: Twospotted spider mites (Tetranychus urticae Koch); test: Mite/insect screen, twospotted spider mites; format: in vivo; conditions: sprayed leaves; for mortality at 200 ppm / mortality at 400 ppm: Tetranychus urticae, read-out: SM results (percent mortality)
Procedure, shortened: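 Squash cotyledons infested with mites were sprayed to runoff at 10 psi with compound in acetone/alcohol plus emulsifiers, diluted in water to the stated concentrations. Percent mortality and phytotoxicity were scored after standard exposure periods.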

[8] = test system: Puccinia recondita tritici (leaf rust); test: Plant pathology screen (Test 1), leaf rust on wheat; conditions: in Triticum aestivum, foliar, read-out: LEAF RUST control rating
[9] = test system: Botrytis cinerea (gray mold); test: Plant pathology screen (Test 1), gray mold on grape berries; conditions: read-out: GRAY MOLD control rating

Row | SMILES | mortality at 200 ppm ([1]; rate 200 ppm) [%] | mortality at 400 ppm ([1]; rate 400 ppm) [%] | mortality at 200 ppm ([2]; rate 200 ppm) [%] | mortality at 400 ppm ([2]; rate 400 ppm) [%] | pest or weed control at 400 µg/mL [3] [%] | pest or weed control at 400 µg/mL [4] [%] | mortality at 12 ppm ([5]; CRW rate 12.00 ppm) [%] | mortality at 24 ppm ([5]; CRW rate 24.00 ppm) [%] | pest or weed control at 400 µg/mL [6] [%] | mortality at 200 ppm ([7]; rate 200 ppm) [%] | mortality at 400 ppm ([7]; rate 400 ppm) [%] | pest or weed control at 400 µg/mL [8] [%] | pest or weed control at 400 µg/mL [9] [%] | further results
1 | Cc1oc2ncnc(OCC3CCC(C)O3)c2c1C (centres unmarked) [Example 60, 5,6-dimethyl-4-[(2-methyloxolan-5-yl)methoxy]furo[2,3-d]pyrimidine] | 50 | 60 | 0 | 0 | 0 to 19 | 90 to 100 | 0 | 0 | 0 to 19 | 0 | 80 | 0 to 19 | 0 to 19 | 
2 | Cc1oc2ncnc(NCCc3ccc(OC(F)(F)C(F)F)cc3)c2c1C [Example 47, N-[2-[4-(1,1,2,2-tetrafluoroethoxy)phenyl]ethyl]-5,6-dimethylfuro[2,3-d]pyrimidin-4-amine] | 100 | 100 | 100 | 0 | 90 to 100 | 90 to 100 | 100 | 80 | 20 to 89 | 90 | 100 | 90 to 100 | 0 to 19 | 
3 | Cc1oc2ncnc(Oc3ccc(F)cc3Cl)c2c1C [Example 59, 4-(2-chloro-4-fluorophenoxy)-5,6-dimethylfuro[2,3-d]pyrimidine] | 0 | 0 | 0 | 0 | 0 to 19 | 0 to 19 | 0 | 0 | 90 to 100 | 0 | 0 | 20 to 89 | 0 to 19 | 
4 | Cc1ccc(CCNc2ncnc3oc(C)c(C)c23)cc1 [Example 24, 5,6-dimethyl-N-[2-(4-methylphenyl)ethyl]furo[2,3-d]pyrimidin-4-amine] | 0 | 0 | 0 | 0 | 20 to 89 | 0 to 19 | 0 | 0 | 0 to 19 | 0 | 0 | 90 to 100 | 0 to 19 | 
5 | Cc1oc2ncnc(NCCSCc3c(F)cccc3Cl)c2c1C [Example 14, 5,6 dimethyl-N-[2-[[(2-chloro-6-fluorophenyl)methyl]thio]ethyl]furo[2,3-d]pyrimidin-4-amine] | 0 | 0 | 0 | 0 | 0 to 19 | 0 to 19 | 0 | 0 | 0 to 19 | 0 | 0 | 0 to 19 | 0 to 19 | 
6 | Cc1oc2ncnc(OCCN3C[C@@H](C)O[C@H](C)C3)c2c1C (relative stereo) [Example 58, Trans-5,6-dimethyl-4-[2-(2,6-dimethyl-4-morpholinyl)ethoxy]furo[2,3-d]pyrimidine] | 0 | 0 | 0 | 0 | 0 to 19 | 20 to 89 | 0 | 0 | 0 to 19 | 0 | 0 | 20 to 89 | 0 to 19 | 
7 | Cc1oc2ncnc(OCCc3ccc(-c4ccccc4)cc3)c2c1C [Example 51, 4-[2-[4-biphenylyl]ethoxy]-5,6-dimethylfuro[2,3-d]pyrimidine] | 90 | 80 | 0 | 0 | 0 to 19 | 90 to 100 | 0 | 0 | 0 to 19 | 100 | 80 | 0 to 19 | 0 to 19 | 
8 | Cc1oc2ncnc(NC(C)(C)Cc3ccccc3)c2c1C [Example 77, 5,6-dimethyl-N-[1,1-dimethyl-2-phenylethyl]furo[2,3-d]pyrimidin-4-amine] | 100 | 80 | 0 | 0 | 90 to 100 | 90 to 100 | 0 | 0 | 90 to 100 | 50 | 90 | 90 to 100 | 0 to 19 | 
9 | COc1ccc(CCNc2ncnc3occ(C)c23)cc1OC [Example 27, N-[2-(3,4-dimethoxyphenyl)ethyl]-5-methylfuro[2,3-d]pyrimidin-4-amine] | 0 | 0 | 0 | 0 | 0 to 19 | 90 to 100 | 0 | 0 | 0 to 19 | 0 | 0 | 90 to 100 | 0 to 19 | 
10 | Cc1oc2ncnc(OCCN3C[C@@H](C)O[C@@H](C)C3)c2c1C [Example 57, Cis-5,6-dimethyl-4-[2-(2,6-dimethyl-4-morpholinyl)ethoxy]furo[2,3-d]pyrimidine] | 0 | 0 | 0 | 0 | 0 to 19 | 20 to 89 | 0 | 0 | 0 to 19 | 0 | 0 | 0 to 19 | 0 to 19 | MA results (percent mortality) ([1]; rate 200 ppm): 0%; MA results (percent mortality) ([1]; rate 400 ppm): 0%; SAW results (percent mortality) ([2]; rate 200 ppm): 0%; SAW results (percent mortality) ([2]; rate 400 ppm): 0%; CRW results (percent mortality) ([5]; CRW rate 12.00 ppm): 0%; CRW results (percent mortality) ([5]; CRW rate 24.00 ppm): 0%; SM results (percent mortality) ([7]; rate 200 ppm): 0%; SM results (percent mortality) ([7]; rate 400 ppm): 0%
11 | Cc1cc2c(OCCc3ccc(-c4ccccc4)cc3)ncnc2o1 [Example 7, 4-[2-(1,1'-biphenyl)-4-ylethoxy]6-methylfuro[2,3-d]pyrimidine] | 100 | 0 | 0 | 0 | 20 to 89 | 20 to 89 | 0 | 0 | 0 to 19 | 30 | 0 | 0 to 19 | 0 to 19 | 
12 | Cc1oc2ncnc(OCCc3ccccc3C(F)(F)F)c2c1C [Example 76, 5,6-dimethyl-4-[2-[2(trifluoromethyl)phenyl]ethoxy]furo[2,3-d]pyrimidine] |  | 0 |  | 0 | 0 to 19 | 20 to 89 |  | 60 | 90 to 100 |  | 0 | 0 to 19 | 0 to 19 | 
13 | COc1ccc(Oc2ncnc3oc(C)c(C)c23)cc1 [Example 65, 5,6-dimethyl-4-(4-methoxyphenoxy)furo[2,3-d]pyrimidine] | 0 | 0 | 0 | 0 | 0 to 19 | 0 to 19 | 0 | 0 | 20 to 89 | 0 | 0 | 0 to 19 | 0 to 19 | 
